No end group written: not given here.

Data on 15 molecules can be found in patent US6994987B1, “Process for producing tripeptides” (Calpis Co., Ltd., priority 1999, dated 2006).

Assay [1] concerns the target T1, Carboxypeptidase Y (Saccharomyces cerevisiae, UniProt P00729).
T1 construct: purchased Sigma Chemical Co
T1 sequence (P00729 112-532): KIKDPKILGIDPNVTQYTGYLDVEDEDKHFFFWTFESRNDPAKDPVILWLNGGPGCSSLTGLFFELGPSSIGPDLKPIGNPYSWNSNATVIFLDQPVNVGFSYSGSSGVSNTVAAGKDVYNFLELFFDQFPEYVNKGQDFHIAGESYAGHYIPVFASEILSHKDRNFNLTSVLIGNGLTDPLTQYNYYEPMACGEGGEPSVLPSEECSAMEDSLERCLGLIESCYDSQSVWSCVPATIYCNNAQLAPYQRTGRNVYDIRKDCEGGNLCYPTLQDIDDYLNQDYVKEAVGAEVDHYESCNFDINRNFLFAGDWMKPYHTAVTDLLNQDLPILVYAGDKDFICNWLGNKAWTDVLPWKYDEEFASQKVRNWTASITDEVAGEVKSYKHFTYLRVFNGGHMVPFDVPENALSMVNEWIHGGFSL
As to the kind of experiment: Reactivity of peptidase formulations against synthetic peptides: carboxypeptidase Y alone. The assay is classed as biochemical. Particulars: for Existence of IPP or VPP peaks: no aminopeptidase, carboxypeptidase Y, phosphate buffer pH 5.3, 37° C. 3 hours, HPLC. Here is the method:
(§1) Peptides shown in Table 1 were chemically synthesized. […] All of these synthetic peptides were synthesized with the automatic peptide synthesizing machine PPSM-8 (manufactured by Shimadzu Corporation).
(§2) Each synthetic peptide was dissolved at the concentration of 10 μg/ml in 100 mM phosphate buffer pH 5.3 as to Experiments 1-1 to 1-4, 1-10 to 1-12, 1-16 and 1-21, or in 50 mM Tris-HCl buffer pH 8.0 as to other Experiments. Each of various peptidase formulations shown in Table 1 was then added so that the concentration thereof became 0.01 μg/ml, and the reaction was performed at 37° C. for 3 hours. After the enzyme reaction, the mixture was analyzed by the reverse phase high performance liquid chromatography (HPLC). […] The fractions of the detected peak were collected and amino acid sequence analysis was performed by the automatic peptide analyzer model PPSQ-10 (manufactured by Shimadzu Corporation). […]

The test system of assay [2] is fraction 4 (peptidase derived from Lactobacillus helveticus). As to the kind of experiment: Reaction of fraction 4 with chemically synthesized intermediate peptides as substrates. Format: biochemical. Particulars: substrate peptide reacted with fraction 4, HPLC. Here is the method:
A milk medium containing 9 wt % skim milk was inoculated with lactic acid bacteria Lactobacillus helveticus CM4 strain (deposited at National Institute of Bioscience and Human-Technology (1-3, Higashi 1 chome Tsukuba-shi Ibaraki-ken 305, Japan) under deposition number FEFM BP-6060 on Aug. 15, 1997) (referred to hereinbelow as CM4 strain). The bacteria were cultured at 37° C. for 24 hours. The CM4 strain has been accorded the aforementioned accession number under the Budapest Treaty on the International Recognition of the Deposit of Microorganisms for the Purposes of Patent Procedure. All restrictions on the availability to the public of this strain will be irrevocably removed upon the granting of a patent. To 500 ml of a fresh 9 wt % milk medium, cultured mixture was added at 5 wt %. […] was performed at 37° C. and at the pH of 6.5. Five hours after the start of pH stat culturing, sodium citrate was added so that the final concentration thereof became 2 wt %. The mixture was stirred for 30 minutes at room temperature. After confirming that the cultured liquid became clear, cell bodies were collected by centrifugation at 5000 g for 10 minutes. The cell bodies were washed twice with 50 mM phosphate buffer containing 150 mM NaCl pH 6.8, and suspended in 20 ml of 50 mM tris-Cl pH 8.0, and then crushed with an ultrasonic crusher (model 5203, manufactured by Ohtake Works Co.). Centrifugation at 15000 g was performed for 10 minutes for removing the precipitant and collecting the supernatant as a crude extract. 5 ml of the crude extract was passed through 1 ml of DEAE-sepharose column (manufactured by Pharmacia Corporation) that has been pre-equilibrated with the tris buffer. The column was washed with 5 ml of the tris buffer and then sequentially washed with 3 ml of tris buffers containing 50 mM, 100 mM, 150 mM, 200 mM, 300 mM and 500 mM NaCl, for fractionation.
An intermediate peptide Val-Pro-Pro-Phe-Leu was chemically synthesized. The synthesized peptide was dissolved at 10 μg/ml in 100 mM phosphate buffer (pH 6.1). This solution and one of the fractions 1 to 6 were mixed at the volume ratio of 9:1, and reacted at 37° C. for 30 minutes.
Further, it was confirmed that the tripeptide Ile-Pro-Pro was produced from the peptides Ile-Pro-Pro-Leu-Thr-Gln-Thr and Ile-Pro-Pro-Leu-Thr.

In assay [3] the test system is hypertensive patients. Particulars: known in the prior art; cited from earlier work.
The conditions of assay [4]: reported in JP-A-11-100328; cited from earlier work.
In assay [5] the test system is spontaneous hypertension rats (SHR). Particulars: known in the prior art; cited from earlier work.
For assay [6], the target named is angiotensin converting enzyme (ACE) (Homo sapiens, UniProt P12821). Particulars: known in the prior art; cited from earlier work.
Assay [7] has as its system synthetic peptide consisting of the 28 amino acids (SEQ ID NO: 28). As to the kind of experiment: Two step reaction of proteinase and fraction 4 on the 28 amino acid synthetic peptide. Format: biochemical. Particulars: proteinase 0.1 μg/ml on 28-mer 10 μg/ml, pH 6.1, 37° C. 5 hours, heat inactivation, then fraction 4; HPLC. The protocol:
To 10 μg/ml of the synthetic peptide consisting of the 28 amino acids that is the same as the one used in Experiment 2 (in 100 mM phosphate buffer pH 6.1), each of the commercially available proteinase enzymes for food processing shown in Table 4 was added at 0.1 μg/ml. The mixture was reacted at 37° C. for 5 hours. After finishing the reaction, the reacted liquid was heated at 100° C. for 5 minutes for inactivating the proteinase, and then reacted with the fraction 4 obtained in Experiment 4.

The test system of assay [8] is Aminipeptidase I + Carboxypeptidase Y. As to the kind of experiment: Reactivity of peptidase formulations against synthetic peptides: aminopeptidase I + carboxypeptidase Y. The assay is classed as biochemical. Particulars: phosphate buffer pH 5.3, 37° C. 3 hours, HPLC. The protocol: as §1, §2

angiotensin converting enzyme (ACE), sequence (P12821 30-1306, species assumed): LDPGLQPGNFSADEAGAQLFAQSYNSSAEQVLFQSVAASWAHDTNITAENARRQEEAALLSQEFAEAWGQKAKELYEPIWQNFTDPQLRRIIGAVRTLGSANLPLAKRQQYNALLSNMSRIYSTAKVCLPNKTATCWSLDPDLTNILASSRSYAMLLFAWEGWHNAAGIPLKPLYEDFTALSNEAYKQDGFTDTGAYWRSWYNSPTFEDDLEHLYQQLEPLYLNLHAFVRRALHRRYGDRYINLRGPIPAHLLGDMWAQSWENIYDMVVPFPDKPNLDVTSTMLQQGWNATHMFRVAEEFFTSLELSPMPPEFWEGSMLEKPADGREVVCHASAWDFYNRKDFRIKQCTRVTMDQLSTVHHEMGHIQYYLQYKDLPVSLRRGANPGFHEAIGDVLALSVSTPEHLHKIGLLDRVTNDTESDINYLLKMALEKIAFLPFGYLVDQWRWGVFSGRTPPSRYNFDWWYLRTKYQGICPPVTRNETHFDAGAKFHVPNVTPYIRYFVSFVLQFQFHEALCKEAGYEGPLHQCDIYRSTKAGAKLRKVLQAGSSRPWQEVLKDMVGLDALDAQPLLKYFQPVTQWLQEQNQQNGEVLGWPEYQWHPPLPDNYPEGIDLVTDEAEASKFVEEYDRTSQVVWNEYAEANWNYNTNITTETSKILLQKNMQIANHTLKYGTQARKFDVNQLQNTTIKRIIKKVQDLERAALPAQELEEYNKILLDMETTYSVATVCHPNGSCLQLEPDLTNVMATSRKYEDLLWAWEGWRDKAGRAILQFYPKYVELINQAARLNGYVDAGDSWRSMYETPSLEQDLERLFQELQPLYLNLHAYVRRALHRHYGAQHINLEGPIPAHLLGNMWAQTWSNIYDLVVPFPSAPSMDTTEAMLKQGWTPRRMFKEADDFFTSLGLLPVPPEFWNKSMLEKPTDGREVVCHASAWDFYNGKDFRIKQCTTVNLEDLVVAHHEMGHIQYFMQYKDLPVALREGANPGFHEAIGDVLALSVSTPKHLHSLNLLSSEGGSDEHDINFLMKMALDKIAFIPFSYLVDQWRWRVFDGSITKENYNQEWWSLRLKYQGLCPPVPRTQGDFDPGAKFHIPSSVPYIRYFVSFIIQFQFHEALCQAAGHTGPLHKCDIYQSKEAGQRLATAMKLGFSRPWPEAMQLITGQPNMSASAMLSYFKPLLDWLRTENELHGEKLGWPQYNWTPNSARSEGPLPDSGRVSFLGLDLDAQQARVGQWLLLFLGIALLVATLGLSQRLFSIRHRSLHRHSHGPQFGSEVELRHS

In the case of IPPLTQT, the “Existence of IPP or VPP peaks” value in assay [1] is listed as “IPP”. In addition, the Peptide produced entry in assay [2] is given as “Ile Pro Pro”; in assay [2] (listed as Ile-Pro-Pro-Leu-Thr-Gln-Thr), “Ile-Pro-Pro”.

Turning to “Ile Pro Pro (IPP) [Ile-Pro-Pro, tripeptide produced by the method]”, in assay [3], the “anti-hypertensive effect on hypertensive patients” value is “anti-hypertensive effect”. Besides, the anti-stress activity entry in assay [4] is “anti-stress activity”. For the same molecule, the “anti-hypertensive activity on spontaneous hypertension rats (SHR)” value in assay [5] was “strong anti-hypertensive activity”. Besides, the ACE inhibitory activity entry in assay [6] is “strong”.

For the molecule Ile Pro Pro Leu Thr (IPPLT), the Peptide produced entry is recorded as “Ile Pro Pro” in assay [2] and “Ile-Pro-Pro” in assay [2] (listed as Ile-Pro-Pro-Leu-Thr).

Regarding Leu-Pro-Pro [reference compound], the ACE inhibitory activity result in assay [6] was “ACE inhibitory activity”.

In the case of Pepsin, the “Production of the tripeptides Ile-Pro-Pro and Val-Pro-Pro” value (from here on “Production”) in assay [7] was “No”.

Consider QNIPPLTQT, for which the “Existence of IPP or VPP peaks” value in assay [8] was “IPP”; in assay [8] (listed as Gln-Asn-Ile-Pro-Pro-Leu-Thr-Gln-Thr), “production of the tripeptides Ile-Pro-Pro or Val-Pro-Pro was also recognized”.

With VPPFLQ, the “Existence of IPP or VPP peaks” value in assay [1] is reported as “VPP”. In addition, the figures for the Peptide produced result in assay [2] and in assay [2] (listed as Val-Pro-Pro-Phe-Leu-Gln) were “Val Pro Pro” and “Val-Pro-pro”, respectively.

Consider VVVPPFLQ, for which the “Existence of IPP or VPP peaks” value was “VPP” in assay [8] and “production of the tripeptides Ile-Pro-Pro or Val-Pro-Pro was also recognized” in assay [8] (listed as Val-Val-Val-Pro-Pro-Phe-Leu-Gln).

Consider “Val Pro Pro (VPP) [Val-Pro-Pro, tripeptide produced by the method]”, for which the “anti-hypertensive effect on hypertensive patients” value in assay [3] is on record as “anti-hypertensive effect”. For the same molecule, the anti-stress activity result in assay [4] is “anti-stress activity”. Further, the “anti-hypertensive activity on spontaneous hypertension rats (SHR)” value in assay [5] is listed as “strong anti-hypertensive activity”.

Val Pro Pro Phe (VPPF): the “Existence of IPP or VPP peaks” value in assay [1] is reported as “VPP”.

For Val Pro Pro Phe Leu (VPPFL), the values for the Peptide produced entry in assay [2] and in assay [2] (listed as Val-Pro-Pro-Phe-Leu) were “Val Pro Pro” and “Val-Pro-pro”, respectively.

B1: carboxy peptidase Y: Carboxypeptidase Y (manufactured by Sigma Chemical Co.) (protein, UniProt P00729 112-532, looked up)
Carboxypeptidase Y: T1 sequence (P00729 112-532)
On to B1, for which the “Bond cleavage by the enzyme (in words)” value in assay [1] (reaction at pH 5.3) was “capable of effectively cleave the bond between Pro and Leu in Pro-Pro-Leu and the bond between Pro and Phe in Pro-Pro-Phe”.

B2: Subtilisin BPN: proteinase, Bacillus amyloliquefaciens, Sigma Chemical Co. (protein, UniProt P00782 108-382, looked up)
Subtilisin BPN': AQSVPYGVSQIKAPALHSQGYTGSNVKVAVIDSGIDSSHPDLKVAGGASMVPSETNPFQDNNSHGTHVAGTVAALNNSIGVLGVAPSASLYAVKVLGADGSGQYSWIINGIEWAIANNMDVINMSLGGPSGSAALKAAVDKAVASGVVVVAAAGNEGTSGSSSTVGYPGKYPSVIAVGAVDSSNQRASFSSVGPELDVMAPGVSIQSTLPGNKYGAYNGTSMASPHVAGAAALILSKHPNWTNTQVRSSLENTTTKLGDSFYYGKGLINVQAAAQ
As for B2, in assay [7], the “Production” value is “No”.

B3: Subtilisin Carlsberg: proteinase, Bacillus licheniformis, Sigma Chemical Co. (protein, UniProt P00780 106-379, looked up)
Subtilisin Carlsberg: AQTVPYGIPLIKADKVQAQGFKGANVKVAVLDTGIQASHPDLNVVGGASFVAGEAYNTDGNGHGTHVAGTVAALDNTTGVLGVAPSVSLYAVKVLNSSGSGSYSGIVSGIEWATTNGMDVINMSLGGASGSTAMKQAVDNAYAKGVVVVAAAGNSGSSGNTNTIGYPAKYDSVIAVGAVDSNSNRASFSSVGAELEVMAPGAGVYSTYPTNTYATLNGTSMASPHVAGAAALILSKHPNLSASQVRNRLSSTATYLGSSFYYGKGLINVEAAAQ
As to B3, in assay [7], the “Production” value is on record as “No”.

B4: Trypsin (Type I): proteinase, bovine pancreas, Sigma Chemical Co. (protein, UniProt P00760 24-246, looked up)
Serine protease 1: IVGGYTCGANTVPYQVSLNSGYHFCGGSLINSQWVVSAAHCYKSGIQVRLGEDNINVVEGNEQFISASKSIVHPSYNSNTLNNDIMLIKLKSAASLNSRVASISLPTSCASAGTQCLISGWGNTKSSGTSYPDVLKCLKAPILSDSSCKSAYPGQITSNMFCAGYLEGGKDSCQGDSGGPVVCSGKLQGIVSWGSGCAQKNKPGVYTKVCNYVSWIKQTIASN
As for B4, the “Production” value in assay [7] is recorded as “No”.
